Reference: ChEMBL document CHEMBL4613250, “Discovery of 4-((2S,4S)-4-Ethoxy-1-((5-methoxy-7-methyl-1H-indol-4-yl)methyl)piperidin-2-yl)benzoic Acid (LNP023), a Factor B Inhibitor Specifically Designed To Be Applicable to Treating a Diverse Array of Complement Mediated Diseases” (J Med Chem, 2020)

Legend:
[1] = Mean residence time in beagle dog at 0.1 mg/kg, iv after 15 mins to 24 hrs by HPLC-MS/MS analysis; format: ADME, organism-based, Canis lupus familiaris; conditions: in vivo
[2] = Volume of distribution at steady state in Wistar Han rat at 1 mg/kg, iv after 0.5 to 24 hrs by HPLC-MS/MS analysis; format: ADME, organism-based; conditions: in vivo, read-out: Vdss
[3] = Tmax in beagle dog at 10 mg/kg, po after 15 mins to 24 hrs by HPLC-MS/MS analysis; format: ADME, organism-based, Canis lupus familiaris; conditions: in vivo
[4] = Oral bioavailability in beagle dog at 10 mg/kg after 15 mins to 24 hrs by HPLC-MS/MS analysis; format: ADME, organism-based, Canis lupus familiaris; conditions: in vivo
[5] = Half life in Wistar Han rat at 1 mg/kg, iv after 0.5 to 24 hrs by HPLC-MS/MS analysis; format: ADME, organism-based; conditions: in vivo
[6] = AUC/dose in Wistar Han rat at 1 mg/kg, iv after 0.5 to 24 hrs by HPLC-MS/MS analysis; format: ADME, organism-based; conditions: in vivo
[7] = Tmax in Wistar Han rat at 30 mg/kg, po after 0.5 to 24 hrs by HPLC-MS/MS analysis; format: ADME, organism-based; conditions: in vivo
[8] = AUC/dose in Wistar Han rat at 30 mg/kg, po after 0.5 to 24 hrs by HPLC-MS/MS analysis; format: ADME, organism-based; conditions: in vivo
[9] = AUC/dose in beagle dog at 10 mg/kg, po after 15 mins to 24 hrs by HPLC-MS/MS analysis; format: ADME, organism-based, Canis lupus familiaris; conditions: in vivo
[10] = Cmax/dose in Wistar Han rat at 30 mg/kg, po after 0.5 to 24 hrs by HPLC-MS/MS analysis; format: ADME, organism-based; conditions: in vivo
[11] = Oral bioavailability in Wistar Han rat at 30 mg/kg after 0.5 to 24 hrs by HPLC-MS/MS analysis; format: ADME, organism-based; conditions: in vivo
[12] = Clearance in beagle dog at 0.1 mg/kg, iv after 15 mins to 24 hrs by HPLC-MS/MS analysis; format: ADME, organism-based, Canis lupus familiaris; conditions: in vivo
[13] = Mean residence time in Wistar Han rat at 1 mg/kg, iv after 0.5 to 24 hrs by HPLC-MS/MS analysis; format: ADME, organism-based; conditions: in vivo
[14] = species: Canis familiaris; test: animal or person; conditions: Canis lupus familiaris, beagle, po, 6 h, read-out: INH
[15] = Half life in beagle dog at 0.1 mg/kg, iv after 15 mins to 24 hrs by HPLC-MS/MS analysis; format: ADME, organism-based, Canis lupus familiaris; conditions: in vivo
[16] = Clearance in Wistar Han rat at 1 mg/kg, iv after 0.5 to 24 hrs by HPLC-MS/MS analysis; format: ADME, organism-based; conditions: in vivo
[17] = species: Canis familiaris; test: animal or person; conditions: Canis lupus familiaris, beagle, po, 12 h, read-out: INH
[18] = Cmax/dose in beagle dog at 10 mg/kg, po after 15 mins to 24 hrs by HPLC-MS/MS analysis; format: ADME, organism-based, Canis lupus familiaris; conditions: in vivo
[19] = AUC/dose in beagle dog at 0.1 mg/kg, iv after 15 mins to 24 hrs by HPLC-MS/MS analysis; format: ADME, organism-based, Canis lupus familiaris; conditions: in vivo
[20] = Volume of distribution at steady state in beagle dog at 0.1 mg/kg, iv after 15 mins to 24 hrs by HPLC-MS/MS analysis; format: ADME, organism-based, Canis lupus familiaris; conditions: in vivo, read-out: Vdss

## CCO[C@H]1CCN(Cc2c(OC)cc(C)c3[nH]ccc23)[C@H](c2ccc(C(=O)O)cc2)C1.Cl
[1]
  MRT: 5.5 h
[2]
  Vd: 2.3 L/kg
[3]
  Tmax: 0.8 h
[4]
  bioavailability: 60%
[5]
  half-life: 7 h
[6]
  AUC/dose: 5200 nM·h
[7]
  Tmax: 2 h
[8]
  AUC/dose: 2100 nM·h
[9]
  AUC/dose: 12700 nM·h
[10]
  Cmax/dose: 410 nM
[11]
  bioavailability: 40%
[12]
  clearance: 2 mL/min/kg
[13]
  MRT: 3.4 h
[14]
  inhibition in vivo at 3 mg/kg: 100%
[15]
  half-life: 5.6 h
[16]
  clearance: 8 mL/min/kg
[17]
  inhibition in vivo at 3 mg/kg: 55%
[18]
  Cmax/dose: 2200 nM
[19]
  AUC/dose: 21000 nM·h
[20]
  Vd: 0.6 L/kg
